Calls of active or inactive are those of the source. No cut-off for these calls is given here.
How the values were obtained:
[1] = test system: Ishikawa; experiment: Antiproliferative activity against human Ishikawa cells assessed as inhibition of cell viability by CCK8 assay; format: functional, cell-based
[2] = test system: KLE; experiment: Antiproliferative activity against human KLE cells assessed as inhibition of cell viability by CCK8 assay; format: functional, cell-based
[3] = test system: HEC-1-A; experiment: Antiproliferative activity against human Hec1A cells assessed as inhibition of cell viability by CCK8 assay; format: functional, cell-based
[4] = test system: HEC-1B cell line; experiment: Antiproliferative activity against human HEC1B cells assessed as inhibition of cell viability by CCK8 assay; format: functional, cell-based
[5] = test system: AN3-CA; experiment: Antiproliferative activity against human AN3CA cells assessed as inhibition of cell viability by CCK8 assay; format: functional, cell-based
[6] = test system: Ishikawa; experiment: Inhibition of colony formation in progesterone sensitive human Ishikawa cells at 20 to 30 uM; format: functional, cell-based
[7] = test system: Ishikawa; experiment: Antimigratory activity against progesterone sensitive human Ishikawa cells assessed as inhibition of cell migration at 10 uM after 48 hrs by transwell assay; format: functional, cell-based
[8] = test system: KLE; experiment: Antimigratory activity against progesterone-resistant human KLE cells assessed as reduction in cell migration at 10 uM after 48 hrs by transwell assay; format: functional, cell-based
[9] = test system: Ishikawa; experiment: Antitumor activity against human Ishikawa cells xenografted in mouse assessed as tumor growth inhibition at 30 mg/kg measured after 28 days relative to control; format: functional; conditions: 672 h, read-out: GI
[10] = test system: Ishikawa; experiment: Potency index, ratio of medroxyprogesterone acetate IC50 to test compound IC50 for antiproliferative activity against human Ishikawa cells assessed as inhibition of cell viability by CCK8 assay; format: functional
[11] = test system: KLE; experiment: Potency index, ratio of medroxyprogesterone acetate IC50 to test compound IC50 for antiproliferative activity against human KLE cells assessed as inhibition of cell viability by CCK8 assay; format: functional
[12] = test system: HEC-1-A; experiment: Potency index, ratio of medroxyprogesterone acetate IC50 to test compound IC50 for antiproliferative activity against human Hec1A cells assessed as inhibition of cell viability by CCK8 assay; format: functional
[13] = test system: HEC-1B cell line; experiment: Potency index, ratio of medroxyprogesterone acetate IC50 to test compound IC50 for antiproliferative activity against human HEC1B cells assessed as inhibition of cell viability by CCK8 assay; format: functional
[14] = test system: AN3-CA; experiment: Potency index, ratio of medroxyprogesterone acetate IC50 to test compound IC50 for antiproliferative activity against human AN3CA cells assessed as inhibition of cell viability by CCK8 assay; format: functional
[15] = test system: Ishikawa; experiment: Inhibition of colony formation in progesterone sensitive human Ishikawa cells; format: functional, cell-based
[16] = test system: KLE; experiment: Inhibition of colony formation in progesterone resistant human KLE cells; format: functional, cell-based
[17] = test system: Ishikawa; experiment: Induction of apoptosis in progesterone-sensitive human Ishikawa cells assessed as early apoptotic cells at 10 uM after 48 hrs by Annexin-V/PI staining based flow cytometry (reference value: 1.92%); format: functional
[18] = test system: Ishikawa; experiment: Induction of apoptosis in progesterone-sensitive human Ishikawa cells assessed as late apoptotic cells at 10 uM after 48 hrs by Annexin-V/PI staining based flow cytometry (reference value: 3.56%); format: functional
[19] = test system: Ishikawa; experiment: Induction of apoptosis in progesterone-sensitive human Ishikawa cells assessed as necrotic cells at 10 uM after 48 hrs by Annexin-V/PI staining based flow cytometry (reference value: 1.21%); format: functional
[20] = test system: Ishikawa; experiment: Induction of apoptosis in progesterone-sensitive human Ishikawa cells assessed as early apoptotic cells at 20 uM after 48 hrs by Annexin-V/PI staining based flow cytometry (reference value: 1.92%); format: functional
[21] = test system: Ishikawa; experiment: Induction of apoptosis in progesterone-sensitive human Ishikawa cells assessed as late apoptotic cells at 20 uM after 48 hrs by Annexin-V/PI staining based flow cytometry (reference value: 3.56%); format: functional
[22] = test system: Ishikawa; experiment: Induction of apoptosis in progesterone-sensitive human Ishikawa cells assessed as necrotic cells at 20 uM after 48 hrs by Annexin-V/PI staining based flow cytometry (reference value: 1.21%); format: functional
[23] = test system: KLE; experiment: Induction of apoptosis in progesterone-resistant human KLE cells assessed as early apoptotic cells at 10 uM after 48 hrs by Annexin-V/PI staining based flow cytometry (reference value: 2.85%); format: functional
[24] = test system: KLE; experiment: Induction of apoptosis in progesterone-resistant human KLE cells assessed as late apoptotic cells at 10 uM after 48 hrs by Annexin-V/PI staining based flow cytometry (reference value: 3.56%); format: functional
[25] = test system: KLE; experiment: Induction of apoptosis in progesterone-resistant human KLE cells assessed as necrotic cells at 10 uM after 48 hrs by Annexin-V/PI staining based flow cytometry (reference value: 1.30%); format: functional
[26] = test system: KLE; experiment: Induction of apoptosis in progesterone-resistant human KLE cells assessed as early apoptotic cells at 20 uM after 48 hrs by Annexin-V/PI staining based flow cytometry (reference value: 2.85%); format: functional
[27] = test system: KLE; experiment: Induction of apoptosis in progesterone-resistant human KLE cells assessed as late apoptotic cells at 20 uM after 48 hrs by Annexin-V/PI staining based flow cytometry (reference value: 3.56%); format: functional
[28] = test system: KLE; experiment: Induction of apoptosis in progesterone-resistant human KLE cells assessed as necrotic cells at 20 uM after 48 hrs by Annexin-V/PI staining based flow cytometry (reference value: 1.30%); format: functional
[29] = test system: Ishikawa; experiment: Induction of apoptosis in progesterone-sensitive human Ishikawa cells after 48 hrs by Annexin-V/PI staining based flow cytometry; format: functional, cell-based
[30] = test system: KLE; experiment: Induction of apoptosis in progesterone-resistant human KLE cells after 48 hrs by Annexin-V/PI staining based flow cytometry; format: functional, cell-based
[31] = target: RAC-alpha serine/threonine-protein kinase (Homo sapiens) (UniProt P31749); experiment: Inhibition of AKT phosphorylation at ser 473 residue in human Ishikawa cells at 20 uM after 48 hrs by Western blot analysis; format: cell-based
RAC-alpha serine/threonine-protein kinase (Homo sapiens), sequence (P31749 whole entry): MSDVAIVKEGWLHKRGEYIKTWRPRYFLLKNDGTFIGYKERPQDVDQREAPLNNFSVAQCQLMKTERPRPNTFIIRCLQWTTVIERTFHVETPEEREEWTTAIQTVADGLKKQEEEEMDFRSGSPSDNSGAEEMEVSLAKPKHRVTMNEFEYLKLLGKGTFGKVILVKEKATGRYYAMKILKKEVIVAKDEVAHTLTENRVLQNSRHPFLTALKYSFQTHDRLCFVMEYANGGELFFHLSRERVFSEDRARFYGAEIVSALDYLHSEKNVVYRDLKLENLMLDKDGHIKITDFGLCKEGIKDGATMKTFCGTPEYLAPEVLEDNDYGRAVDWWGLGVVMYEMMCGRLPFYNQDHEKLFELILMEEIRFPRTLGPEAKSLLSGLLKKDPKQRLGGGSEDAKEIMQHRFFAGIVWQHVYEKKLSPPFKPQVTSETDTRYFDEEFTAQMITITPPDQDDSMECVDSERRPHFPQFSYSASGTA

[32] = target: RAC-alpha serine/threonine-protein kinase (Homo sapiens) (UniProt P31749); experiment: Inhibition of AKT phosphorylation at ser 473 residue in human KLE cells at 20 uM after 48 hrs by Western blot analysis; format: cell-based
[33] = test system: Ishikawa; experiment: Antitumor activity against human Ishikawa cells xenografted in mouse assessed as tumor growth inhibition at 3 mg/kg measured after 28 days relative to control; format: functional; conditions: 672 h, read-out: GI
[34] = test system: Ishikawa; experiment: Antitumor activity against human Ishikawa cells xenografted in mouse assessed as tumor growth inhibition at 15 mg/kg measured after 28 days relative to control; format: functional; conditions: 672 h, read-out: GI
[35] = Toxicity in mouse xenografted with human Ishikawa cells assessed as effect on body weight at 3 to 15 mg/kg after 28 days; format: organism-based; conditions: in vivo, 672 h

## CC(=O)O[C@]1(C(C)=O)CC[C@H]2[C@@H]3C[C@H](C)C4=CC(=O)CC[C@]4(C)[C@H]3CC[C@@]21C [MEDROXYPROGESTERONE ACETATE]
[1]
  IC50: 37 µM
[2]
  IC50: > 80 µM
[3]
  IC50: 51.8 µM
[4]
  IC50: 60.4 µM
[5]
  IC50: 37.1 µM
[6]
  inhibition: Active
[7]
  inhibition: Active
[8]
  Activity: inactive
[9]
  inhibition in vivo at 30 mg/kg: 22.6%

## OCCN1CCN(CCCN2c3ccccc3Sc3ccc(Cl)cc32)CC1 [PERPHENAZINE]
[1]
  IC50: 19.4 µM
[2]
  IC50: 30.8 µM
[3]
  IC50: 23.3 µM
[4]
  IC50: 29.8 µM
[5]
  IC50: 25.4 µM
[10]
  Ratio IC50: 1.9
[11]
  Ratio IC50: >2.6
[12]
  Ratio IC50: 2.2
[13]
  Ratio IC50: 2
[14]
  Ratio IC50: 1.5
[15]
  inhibition: Dose-dependent effect
[16]
  inhibition: Dose-dependent effect
[7]
  inhibition: Active
[8]
  Activity: Active
[17]
  Activity: 6.9%
[18]
  Activity: 7.4%
[19]
  Activity: 2.64%
[20]
  Activity: 6.76%
[21]
  Activity: 12.52%
[22]
  Activity: 2.68%
[23]
  Activity: 4.33%
[24]
  Activity: 7.88%
[25]
  Activity: 5.45%
[26]
  Activity: 6.07%
[27]
  Activity: 11.41%
[28]
  Activity: 2.68%
[29]
  Activity: Dose-dependent effect
[30]
  Activity: Dose-dependent effect
[31]
  inhibition: Active
[32]
  inhibition: Active
[33]
  inhibition in vivo at 3 mg/kg: 58.1%
[34]
  inhibition in vivo at 15 mg/kg: 79.9%
[35]
  Activity: Non-Toxic
